Values of other authors as cited in paper PMC4333608 (Chemical Science, 2014).

Target: T1, São Paulo metallo-β-lactamase-1 (SPM-1) (Pseudomonas aeruginosa, UniProt Q8G9Q0)
T1 sequence (Q8G9Q0 29-276): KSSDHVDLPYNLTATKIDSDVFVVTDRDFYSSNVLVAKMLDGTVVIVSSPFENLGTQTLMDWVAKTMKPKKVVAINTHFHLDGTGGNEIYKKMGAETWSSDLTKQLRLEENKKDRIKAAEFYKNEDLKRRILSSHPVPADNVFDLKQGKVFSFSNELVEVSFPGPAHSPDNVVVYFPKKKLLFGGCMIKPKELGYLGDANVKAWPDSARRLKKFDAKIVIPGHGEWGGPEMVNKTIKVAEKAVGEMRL
Test: enzyme inhibition IC50
Format: biochemical

O=C(O)c1cc(CS)cc(CS)c1 [3,5-bis(mercaptomethyl)benzoic acid]
IC50: 700 nM
